Assay results: PMC7142328 (Journal of natural products, 2018)

How the values were obtained:
rat α3β4 nAChR [1] = molecular target: T1, rat α3β4 nAChR (Rattus norvegicus, UniProt P04757+P12392); assay: cell-based; type: cell-based
Swiss-Webster mice [2] = conditions: cited from earlier work
In-vivo toxicity = conditions: male, Swiss-Webster, mouse, in vivo, iv
5-HT3A receptor = molecular target: T2, 5-HT3A receptor (Rattus norvegicus, UniProt P35563); assay: Two-electrode voltage clamp electrophysiology in Xenopus oocytes, 5-HT3A; type: cell-based
T2 sequence (P35563 24-483): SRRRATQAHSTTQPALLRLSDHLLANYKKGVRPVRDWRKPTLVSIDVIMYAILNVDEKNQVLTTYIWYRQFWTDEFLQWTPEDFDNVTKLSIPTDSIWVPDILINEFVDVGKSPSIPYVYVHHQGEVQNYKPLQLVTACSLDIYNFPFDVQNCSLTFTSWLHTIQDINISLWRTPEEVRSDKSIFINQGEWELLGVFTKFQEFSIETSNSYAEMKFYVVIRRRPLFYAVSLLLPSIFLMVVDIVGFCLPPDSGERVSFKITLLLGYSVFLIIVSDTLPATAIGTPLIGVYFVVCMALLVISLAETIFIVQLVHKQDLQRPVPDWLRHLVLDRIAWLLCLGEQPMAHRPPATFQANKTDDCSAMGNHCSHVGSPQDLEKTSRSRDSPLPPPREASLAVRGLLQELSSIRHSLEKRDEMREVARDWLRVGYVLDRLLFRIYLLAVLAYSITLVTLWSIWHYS

rat α7 nAChR [3] = molecular target: T3, rat α7 nAChR (Rattus norvegicus, UniProt Q05941); type: cell-based
rat α4β2 nAChR [4] = molecular target: T4, rat α4β2 nAChR (Rattus norvegicus, UniProt P09483+P12390); type: cell-based
[5] = molecular target: native nAChR in rat forebrain (Rattus norvegicus, UniProt P09483+P12390); type: binding
rat α4β2 nAChR [6] = molecular target: T4, rat α4β2 nAChR; type: binding
Human α4β2 nAChR = Human α4β2 nAChR (Homo sapiens, UniProt P17787+P43681); type: cell-based; conditions: for agonist character, α4β2: relative to nicotine
rat α3β2 nAChR = rat α3β2 nAChR (Rattus norvegicus, UniProt P04757+P12390); assay: Two-electrode voltage clamp electrophysiology in Xenopus oocytes, α3β2; type: cell-based
rat α3β4 nAChR [7] = molecular target: T1, rat α3β4 nAChR; type: binding
Swiss-Webster mice [8] = assay: In-vivo toxicity; conditions: mice; for signs of toxicity: intravenous
nAChR = assay: Overall nAChR pharmacology, summary statements; conditions: most receptors tested
rat α7 nAChR [9] = molecular target: T3, rat α7 nAChR; type: binding

Chain of Human α4β2 nAChR (P43681 29-627 limits assumed): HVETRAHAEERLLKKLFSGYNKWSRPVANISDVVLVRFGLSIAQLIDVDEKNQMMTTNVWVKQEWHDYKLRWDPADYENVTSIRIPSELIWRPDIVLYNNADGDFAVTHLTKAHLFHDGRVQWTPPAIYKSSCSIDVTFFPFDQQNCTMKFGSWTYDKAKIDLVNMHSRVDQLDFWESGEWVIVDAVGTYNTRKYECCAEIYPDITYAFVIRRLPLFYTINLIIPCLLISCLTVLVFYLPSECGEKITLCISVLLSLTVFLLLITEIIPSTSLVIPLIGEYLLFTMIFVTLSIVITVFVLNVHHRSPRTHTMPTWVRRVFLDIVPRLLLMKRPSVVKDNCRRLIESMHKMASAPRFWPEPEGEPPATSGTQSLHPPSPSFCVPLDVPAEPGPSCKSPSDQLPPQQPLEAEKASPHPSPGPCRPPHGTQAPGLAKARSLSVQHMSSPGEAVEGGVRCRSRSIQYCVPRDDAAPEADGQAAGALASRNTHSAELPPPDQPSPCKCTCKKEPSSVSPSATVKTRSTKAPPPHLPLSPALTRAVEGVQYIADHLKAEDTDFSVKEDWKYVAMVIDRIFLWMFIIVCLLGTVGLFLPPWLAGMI
Chain of Human α4β2 nAChR (P17787 26-502): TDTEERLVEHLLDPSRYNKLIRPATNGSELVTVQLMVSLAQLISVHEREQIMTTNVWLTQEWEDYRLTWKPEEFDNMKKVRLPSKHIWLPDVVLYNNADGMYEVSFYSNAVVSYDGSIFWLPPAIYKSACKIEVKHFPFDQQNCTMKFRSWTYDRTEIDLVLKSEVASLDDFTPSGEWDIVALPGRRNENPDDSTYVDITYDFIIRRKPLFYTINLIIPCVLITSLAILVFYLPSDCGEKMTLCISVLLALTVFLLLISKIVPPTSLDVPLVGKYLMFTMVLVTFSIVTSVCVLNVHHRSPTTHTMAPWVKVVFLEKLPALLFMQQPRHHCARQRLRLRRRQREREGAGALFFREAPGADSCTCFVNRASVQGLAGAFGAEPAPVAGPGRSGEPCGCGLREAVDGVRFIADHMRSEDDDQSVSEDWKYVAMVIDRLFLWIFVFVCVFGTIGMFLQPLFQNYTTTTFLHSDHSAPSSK
T3 sequence (Q05941 23-502): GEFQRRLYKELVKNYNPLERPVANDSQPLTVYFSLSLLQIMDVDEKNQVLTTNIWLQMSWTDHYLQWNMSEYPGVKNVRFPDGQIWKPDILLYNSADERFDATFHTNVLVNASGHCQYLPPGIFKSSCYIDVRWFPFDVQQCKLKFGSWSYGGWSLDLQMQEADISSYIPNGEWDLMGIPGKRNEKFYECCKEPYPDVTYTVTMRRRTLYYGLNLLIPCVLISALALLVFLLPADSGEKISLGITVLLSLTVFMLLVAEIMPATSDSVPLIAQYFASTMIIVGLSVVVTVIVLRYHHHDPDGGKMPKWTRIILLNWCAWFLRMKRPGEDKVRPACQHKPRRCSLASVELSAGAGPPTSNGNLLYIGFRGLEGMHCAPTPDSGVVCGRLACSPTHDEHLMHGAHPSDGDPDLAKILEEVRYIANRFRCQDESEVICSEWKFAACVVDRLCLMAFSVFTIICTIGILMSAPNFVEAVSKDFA
T1 sequence (P12392 21-495): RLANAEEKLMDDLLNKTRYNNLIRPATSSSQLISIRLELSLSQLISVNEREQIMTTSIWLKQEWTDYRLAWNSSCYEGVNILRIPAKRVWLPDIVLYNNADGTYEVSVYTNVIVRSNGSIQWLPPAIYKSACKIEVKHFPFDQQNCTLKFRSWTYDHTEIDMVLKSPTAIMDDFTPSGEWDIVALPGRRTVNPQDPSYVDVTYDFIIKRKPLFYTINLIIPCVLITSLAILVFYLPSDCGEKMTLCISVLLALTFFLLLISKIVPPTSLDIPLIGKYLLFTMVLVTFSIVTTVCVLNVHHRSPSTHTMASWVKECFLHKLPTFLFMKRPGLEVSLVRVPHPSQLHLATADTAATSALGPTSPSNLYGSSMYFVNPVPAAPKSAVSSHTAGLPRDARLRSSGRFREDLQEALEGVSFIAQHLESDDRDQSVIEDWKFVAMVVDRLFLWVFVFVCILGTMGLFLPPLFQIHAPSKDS
T1 sequence (P04757 26-499): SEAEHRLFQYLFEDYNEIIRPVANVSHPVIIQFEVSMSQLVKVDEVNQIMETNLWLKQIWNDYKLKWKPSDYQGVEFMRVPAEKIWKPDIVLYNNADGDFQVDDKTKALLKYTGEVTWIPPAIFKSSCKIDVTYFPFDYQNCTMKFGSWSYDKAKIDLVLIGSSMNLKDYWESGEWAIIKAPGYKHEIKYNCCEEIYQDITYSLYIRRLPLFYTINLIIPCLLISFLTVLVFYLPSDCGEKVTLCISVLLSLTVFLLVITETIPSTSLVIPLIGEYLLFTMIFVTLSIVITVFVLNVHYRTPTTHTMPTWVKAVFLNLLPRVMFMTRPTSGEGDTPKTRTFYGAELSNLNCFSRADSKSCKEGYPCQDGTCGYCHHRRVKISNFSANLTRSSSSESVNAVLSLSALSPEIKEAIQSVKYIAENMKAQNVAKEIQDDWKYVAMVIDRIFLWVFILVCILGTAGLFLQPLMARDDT
T4 sequence (P09483 31-630): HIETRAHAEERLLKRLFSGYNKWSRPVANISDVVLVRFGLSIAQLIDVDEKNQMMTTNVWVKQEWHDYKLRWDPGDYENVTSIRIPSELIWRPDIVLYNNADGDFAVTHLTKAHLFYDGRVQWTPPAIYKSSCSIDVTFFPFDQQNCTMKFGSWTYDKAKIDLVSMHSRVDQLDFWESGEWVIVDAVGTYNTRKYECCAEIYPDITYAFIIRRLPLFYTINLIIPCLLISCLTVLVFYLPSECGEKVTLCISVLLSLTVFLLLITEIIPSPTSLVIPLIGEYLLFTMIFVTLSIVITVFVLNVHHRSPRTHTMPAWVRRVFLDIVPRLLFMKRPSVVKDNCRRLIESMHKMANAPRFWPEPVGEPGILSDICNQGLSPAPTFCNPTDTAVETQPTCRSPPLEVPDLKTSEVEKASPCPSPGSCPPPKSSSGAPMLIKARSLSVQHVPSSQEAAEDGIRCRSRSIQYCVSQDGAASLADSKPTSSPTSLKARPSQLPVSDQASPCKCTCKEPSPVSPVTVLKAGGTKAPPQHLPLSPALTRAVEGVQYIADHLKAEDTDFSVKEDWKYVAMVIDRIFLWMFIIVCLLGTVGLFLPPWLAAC
T4 sequence (P12390 25-500): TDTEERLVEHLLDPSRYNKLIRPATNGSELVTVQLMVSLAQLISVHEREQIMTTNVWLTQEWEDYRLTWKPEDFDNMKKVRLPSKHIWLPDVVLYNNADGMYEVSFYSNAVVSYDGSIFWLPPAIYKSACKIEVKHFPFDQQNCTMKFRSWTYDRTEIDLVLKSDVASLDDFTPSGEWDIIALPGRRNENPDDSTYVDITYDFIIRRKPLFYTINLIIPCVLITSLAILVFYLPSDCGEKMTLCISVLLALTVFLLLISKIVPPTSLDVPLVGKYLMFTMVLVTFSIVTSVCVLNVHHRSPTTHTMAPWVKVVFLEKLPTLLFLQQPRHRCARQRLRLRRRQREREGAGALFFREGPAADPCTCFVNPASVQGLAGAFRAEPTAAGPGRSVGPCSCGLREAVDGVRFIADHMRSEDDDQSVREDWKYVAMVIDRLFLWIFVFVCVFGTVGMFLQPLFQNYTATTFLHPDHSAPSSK
Chain of rat α3β2 nAChR (P04757 26-499): as the sequence (P04757 26-499) above
Chain of rat α3β2 nAChR (P12390 25-500): as the sequence (P12390 25-500) above
Chain of native nAChR in rat forebrain (P12390 25-500): as above
Chain of native nAChR in rat forebrain (P09483 31-630): as the sequence (P09483 31-630) above

Compound: CN1CCC[C@H]1c1cccnc1 [2S-(−)-Nicotine, reference compound]
- Emax (rat α3β4 nAChR [1]; read-out: Emax Rat α3β4): 107 ± 3%
- LD50 in mouse (Swiss-Webster mice [2]): 300 µg/kg

Compound: Clc1ccc2c(n1)OC13CCC1NCC23 (racemic) [(±)-1, phantasmidine]
- LD50 (In-vivo toxicity): 0.27 ± 0.19 mg/kg
- Hillslope 5HT3A (5-HT3A receptor): 1.7
- agonist character, 5-HT3A (5-HT3A receptor; vs meta-chlorophenylbiguanide (mCPBG), oocytes): partial agonist
- Hillslope α7 (rat α7 nAChR [3]): 1.8
- agonist character, α7 (rat α7 nAChR [3]; vs acetylcholine, oocytes): full agonist
- Hillslope α4β2 (rat α4β2 nAChR [4]): 1.6
- agonist character, α4β2 (rat α4β2 nAChR [4]; vs acetylcholine, oocytes): partial agonist
- lower binding affinity than epibatidine (2a), native receptors in rat forebrain [5]: 25 fold
- lower binding affinity than epibatidine (2a), α4β2 (rat α4β2 nAChR [6]): 10 fold
- higher affinity for α4β2 over α3β4 receptors (rat α4β2 nAChR [6]; binding): at least 30 fold
- Eudismic Ratio, 86Rb efflux α4β2 (Human α4β2 nAChR): 280
- difference in functional potency vs 2a, α4β2 (Human α4β2 nAChR; 86Rb efflux): 8 fold
- agonist character, α4β2 (Human α4β2 nAChR; 86Rb efflux): very potent partial agonist
- Hillslope α3β2 (rat α3β2 nAChR): 1.57
- agonist character, α3β2 (rat α3β2 nAChR; vs acetylcholine, oocytes): partial agonist
- Eudismic Ratio, 86Rb efflux α3β4 (rat α3β4 nAChR [1]): 47
- difference in functional potency vs 2a, α3β4 (rat α3β4 nAChR [1]; 86Rb efflux): 18 fold
- agonist character, α3β4 (rat α3β4 nAChR [1]; 86Rb efflux, relative to nicotine): near-full agonist
- lower binding affinity than epibatidine (2a), α3β4 (rat α3β4 nAChR [7]): 50 fold

Compound: CO[C@H]1CC=C2CCN3CCC4=C(CC(=O)OC4)[C@]23C1 [DHβE, dihydro-β-erythroidine, reference compound]
- block of currents induced by 10 nM (±)-1 (rat α4β2 nAChR [4]; 2 min pre-application of 10 nM DHβE, n=4, α3β2 and α4β2 currents): completely blocked

Compound: Clc1ccc(C2CC3CCC2N3)cn1 (racemic) [(±)-2, epibatidine, reference compound]
- LD50 (In-vivo toxicity): 0.0015 ± 0.0003 mg/kg

Compound: CC(=O)OCC[N+](C)(C)C [Acetylcholine, reference compound]
- Hillslope α7 (rat α7 nAChR [3]): 1.5
- Imax α7 (rat α7 nAChR [3]; normalized to 1 mm acetylcholine): 1.0 ± 0.1
- Hillslope α4β2 (rat α4β2 nAChR [4]): 24 ± 6 (1.0 ± 0.1) 1.0
- Imax α4β2 (rat α4β2 nAChR [4]): 24 ± 6 (1.0 ± 0.1) 1.0

Compound: Clc1ccc2c(n1)O[C@@]13CC[C@@H]1NC[C@@H]23 [(2aS,4aR,9aR)-ent-1]
- Hillslope α7 (rat α7 nAChR [3]): 1.3
- Hillslope α4β2 (rat α4β2 nAChR [4]): 1.7
- agonist character, α4β2 (Human α4β2 nAChR; 86Rb efflux): full agonist

Compound: CN1[C@@H]2CC[C@H]1C[C@@H](OC(=O)c1c[nH]c3ccccc13)C2 [tropisetron, reference compound]
- block of currents induced by 100 μM (±)-1 (5-HT3A receptor): completely blocks

Compound: Clc1ccc2c(n1)O[C@]13CC[C@H]1NC[C@H]23 [(2aR,4aS,9aS)-1, phantasmidine]
- less toxic than racemic 2a (Swiss-Webster mice [8]; LD50 comparison): 48 fold
- signs of toxicity (Swiss-Webster mice [8]; dose of 40 μg/kg): piloerection, slight elevated respiration and complete recovery in less than 1 min
- signs of toxicity (Swiss-Webster mice [8]; dose of 50 μg/kg): piloerection, elevated respiration, hyperactivity (running) progressing to tonic clonic seizures and death in less than 30 sec
- eudismic ratio of toxicity (Swiss-Webster mice [8]): around 100
- LD50 (In-vivo toxicity): 0.072 ± 0.014 mg/kg
- Eudismic Ratio, electrophysiology α7 (rat α7 nAChR [3]): 5
- Hillslope α7 (rat α7 nAChR [3]): 1.5
- Hillslope α4β2 (rat α4β2 nAChR [4]): 1.8
- higher affinity than the distomer ent-1 (rat α4β2 nAChR [6]; across the subtypes and forebrain of Table 1): 30-44 fold
- less potent than epibatidine (nAChR): ~ 10 fold
- more potent than nicotine (nAChR): ~ 100 fold
- affinity less than 2a, α7 (rat α7 nAChR [9]): 2 fold
